# In patent US11260116B2, “Vaccine compositions comprising an amphipathic compound, a neoantigen and a hydrophobic carrier, and methods of use thereof” (IMMUNOVACCINE TECHNOLOGIES INC., priority 2016, dated 2022):
# Where two headings read alike, the source gives them in different places.
# How the values were obtained:
# Mut30 neoantigen = assay: IFN-gamma ELISPOT of splenocytes from vaccinated mice; type: in vivo; conditions: Example 3, FIG. 2; C57BL/6 VAF/Elite Crl mice; DNA- or RNA-based poly I:C; single immunization; eight days after vaccination
# Protocol: Pathogen free, C57BL/6 VAF/Elite® Crl mice, 6-8 weeks of age, were purchased from Charles River Laboratories (St. Constant, PQ) and housed according to institutional guidelines with water and food ad libitum under filter controlled air circulation.
# Eight days after vaccination, mice were terminated and spleens collected. […] After 18 hours of culture, plates were developed and the number of spot forming units (SFU) counted using Immunospot Reader (C.T.L.). […] Statistical analysis was performed by 2-way ANOVA with Bonferroni post test comparing group responses to Mut30 peptide: *p<0.05, ***p<0.001.
# Oil-based depot vaccine formulations were prepared with Mut30 antigen at a higher (100 micrograms) and lower (50 micrograms) dose.
# To prepare the oil-based formulations, the Mut30 peptide (low or high dose amount), polyI:C adjuvant (DNA or RNA) and T-helper epitope (A16L peptide) were first reconstituted in an acetate buffer (0.1M, pH 9.5) with DOPC and cholesterol (Lipoid, Germany). The vaccine components were then lyophilized to form a dry cake. Just prior to injection, the dry cake was reconstituted in ISA51 VG oil (SEPPIC, France).
# Mice in group 1 (n=6) were vaccinated with 100 microliters of an oil-based depot vaccine containing 100 micrograms of Mut30 neoantigen, 50 micrograms of A16L peptide, 40 micrograms of DNA-based poly I:C, 12 milligrams of DOPC and 1.2 milligrams of cholesterol. […]
# mutated peptide = conditions: aqueous formulation, mice, cited from earlier work
# [1] = cited from earlier work
Compound,"IFN-gamma ELISPOT immune response to Mut30, high (100 micrograms) vs low (50 micrograms) dose (Mut30 neoantigen)",immune reaction to Mut30 reported by Castle 2012 (mutated peptide),immune reaction to Mut30 reported by Castle 2012 (mutated peptide; listed as Mut30 neoantigen),bioavailability by route of administration ([1]; intravenous infusion vs parenteral and oral),Total systemic clearance of CPA and its metabolites ([1]; patients) [h],elimination half-life on repeated administration ([1]; repeated administration),peak plasma levels of the parent ([1]; vary between patients) [h]
"Mut30: Kif18b neoantigen (K739N) from B16F10 melanoma, PSKPSFQEFVDWENVSPELNSTDQPFL (SEQ ID NO: 2), from Castle 2012 (Mut30 Neoantigen)",No statistically significant difference,strong immune reaction preferentially against the mutated peptide,strong mutation-specific immune responses,,,,
"O=P1(N(CCCl)CCCl)NCCCO1 (stereo not shown) [Cyclophosphamide, N,N-bis(2-chloroethyl)-1,3,2-oxazaphosphinan-2-amine 2-oxide]",,,,little difference in bioavailability,5 to 9,shorten elimination half-life,3 to 11
